Measured values reported in patent US20200390100A1, “SUBSTITUTED N-HETEROCYCLYL- AND N-HETEROARYL-TETRAHYDROPYRIMIDINONES AND THE SALTS THEREOF, AND THE USE OF SAME AS HERBICIDAL ACTIVE SUBSTANCES” (Bayer Aktiengesellschaft, priority 2017, published 2020).

What was measured:
Polygonum convolvulus [1] = assay: Pre-emergence herbicidal action, greenhouse, 320 g/ha; format: in vivo; conditions: application rate 320 g/ha, scored visually after about 3 weeks vs untreated controls
Summary of the method: (§1)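 Soil-surface application onto covered seeds; WP or EC formulation with 0.5% additive in aqueous spray; visual rating at ~3 weeks, 0–100% vs untreated plants.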

Veronica persica [2] = assay: as above; format: in vivo; conditions: application rate 320 g/ha, Table B13
Summary of the method: as §1

Hordeum murinum [3] = assay: as above; format: in vivo; conditions: application rate 320 g/ha, Table B14
Summary of the method: as §1

Abutilon theophrasti [4] = assay: as above; format: in vivo; conditions: application rate 320 g/ha, scored visually after about 3 weeks vs untreated controls
Summary of the method: as §1

Pharbitis purpurea [5] = assay: as above; format: in vivo; conditions: application rate 320 g/ha, Table B12
Summary of the method: as §1

Viola tricolor [6] = assay: as above; format: in vivo; conditions: application rate 320 g/ha, Table B8
Summary of the method: as §1

Setaria viridis [7] = assay: as above; format: in vivo; conditions: application rate 320 g/ha, Table B11
Summary of the method: as §1

Echinochloa crus-galli [8] = assay: as above; format: in vivo; conditions: application rate 320 g/ha, scored visually after about 3 weeks vs untreated controls
Summary of the method: as §1

Alopecurus myosuroides [9] = assay: as above; format: in vivo; conditions: application rate 320 g/ha, scored visually after about 3 weeks vs untreated controls
Summary of the method: as §1

Stellaria media [10] = assay: as above; format: in vivo; conditions: application rate 320 g/ha, scored visually after about 3 weeks vs untreated controls
Summary of the method: as §1

Matricaria inodora [11] = assay: as above; format: in vivo; conditions: application rate 320 g/ha, scored visually after about 3 weeks vs untreated controls
Summary of the method: as §1

Avena fatua = assay: as above; format: in vivo; conditions: application rate 320 g/ha, scored visually after about 3 weeks vs untreated controls
Summary of the method: as §1

Amaranthus retroflexus [12] = assay: as above; format: in vivo; conditions: application rate 320 g/ha, scored visually after about 3 weeks vs untreated controls
Summary of the method: as §1

photosystem II (PS II) = molecular target: T1, photosystem II (PS II) (Spinacia oleracea, UniProt P69560); assay: Measurement of PS II activity in thylakoid membranes (DCPIP reduction); format: biochemical, spinach; conditions: PS II activity in spinach thylakoid membranes, Table E1; read-out: Effect
T1 construct: the chloroplasts were osmotically ruptured and the thylakoid membranes were then obtained by centrifugation; from tissue; host or cells: fresh spinach leaves; thylakoid membrane preparation from isolated chloroplasts
Summary of the method: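 Thylakoid membranes from osmotically ruptured spinach chloroplasts in 50 mM phosphate pH 6.8, 10 mM KCl; compounds added from 100 μM DMSO solution (2.5% DMSO final), 120 μM DCPIP final. DCPIP reduction under light tracked as absorbance decrease at 595 nm over 10 min at 22 °C; % inhibition binned, metribuzin as plate standard.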

Polygonum convolvulus [13] = assay: Post-emergence herbicidal action, greenhouse, 320 g/ha; format: in vivo; conditions: application rate 320 g/ha, rated visually after about 3 weeks vs untreated controls
Summary of the method: (§2)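 Plants treated post-emergence at the one-leaf stage, 2 to 3 weeks after sowing in sandy loam, with WP or EC formulations plus 0.5% additive at 320 g/ha. Visual rating about 3 weeks later versus untreated controls (100% = dead, 0% = like control).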

Veronica persica [14] = assay: as above; format: in vivo; conditions: application rate 320 g/ha, rated visually after about 3 weeks vs untreated controls
Summary of the method: as §2

Lolium rigidum [15] = assay: as above; format: in vivo; conditions: application rate 320 g/ha, rated visually after about 3 weeks vs untreated controls
Summary of the method: as §2

Hordeum murinum [16] = assay: as above; format: in vivo; conditions: application rate 320 g/ha, rated visually after about 3 weeks vs untreated controls
Summary of the method: as §2

Abutilon theophrasti [17] = assay: as above; format: in vivo; conditions: application rate 320 g/ha, rated visually after about 3 weeks vs untreated controls
Summary of the method: as §2

Pharbitis purpurea [18] = assay: as above; format: in vivo; conditions: application rate 320 g/ha, rated visually after about 3 weeks vs untreated controls
Summary of the method: as §2

Viola tricolor [19] = assay: as above; format: in vivo; conditions: application rate 320 g/ha, rated visually after about 3 weeks vs untreated controls
Summary of the method: as §2

Setaria viridis [20] = assay: as above; format: in vivo; conditions: application rate 320 g/ha, rated visually after about 3 weeks vs untreated controls
Summary of the method: as §2

Stellaria media [21] = assay: as above; format: in vivo; conditions: application rate 320 g/ha, rated visually after about 3 weeks vs untreated controls
Summary of the method: as §2

Matricaria inodora [22] = assay: as above; format: in vivo; conditions: application rate 320 g/ha, rated visually after about 3 weeks vs untreated controls
Summary of the method: as §2

Amaranthus retroflexus [23] = assay: as above; format: in vivo; conditions: application rate 320 g/ha, rated visually after about 3 weeks vs untreated controls
Summary of the method: as §2

Lolium rigidum [24] = assay: Herbicidal pre-emergence action (Part 2), 1280 g/ha; format: in vivo; conditions: application rate 1280 g/ha, scored visually after about 3 weeks, Table D2
Summary of the method: (§3)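 Visual percent activity, scored roughly 3 weeks after treatment relative to untreated pots (100% meaning plants died), is reported. Compounds as wettable powders or emulsion concentrates with 0.5% additive were applied to the soil surface over freshly sown seeds at 600 L water/ha.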

Abutilon theophrasti [25] = assay: as above; format: in vivo; conditions: application rate 1280 g/ha, scored visually after about 3 weeks, Table D5
Summary of the method: as §3

Setaria viridis [26] = assay: as above; format: in vivo; conditions: application rate 1280 g/ha, scored visually after about 3 weeks, Table D4
Summary of the method: as §3

Echinochloa crus-galli [27] = assay: as above; format: in vivo; conditions: application rate 1280 g/ha, scored visually after about 3 weeks, Table D1
Summary of the method: as §3

Poa annua [28] = assay: as above; format: in vivo; conditions: application rate 1280 g/ha, scored visually after about 3 weeks, Table D3
Summary of the method: as §3

Stellaria media [29] = assay: as above; format: in vivo; conditions: application rate 1280 g/ha, scored visually after about 3 weeks, Table D8
Summary of the method: as §3

Matricaria inodora [30] = assay: as above; format: in vivo; conditions: application rate 1280 g/ha, scored visually after about 3 weeks, Table D7
Summary of the method: as §3

Amaranthus retroflexus [31] = assay: as above; format: in vivo; conditions: application rate 1280 g/ha, scored visually after about 3 weeks, Table D6
Summary of the method: as §3

Abutilon theophrasti [32] = assay: Herbicidal post-emergence action (Part 2), 1280 g/ha; format: in vivo; conditions: application rate 1280 g/ha, rated visually after about 3 weeks, Table C4
Summary of the method: (§4)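 Post-emergence greenhouse test: one-leaf-stage weeds (2–3 wk after sowing, sandy loam) sprayed onto green parts; WP/EC in water + 0.5% additive, 600 L/ha. Visual rating ~3 wk, 0–100% vs untreated.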

Setaria viridis [33] = assay: as above; format: in vivo; conditions: application rate 1280 g/ha, rated visually after about 3 weeks, Table C3
Summary of the method: as §4

Echinochloa crus-galli [34] = assay: as above; format: in vivo; conditions: post-emergence (Part 2), application rate 1280 g/ha, rated visually after about 3 weeks vs untreated controls
Summary of the method: as §4

Poa annua [35] = assay: as above; format: in vivo; conditions: application rate 1280 g/ha, rated visually after about 3 weeks, Table C2
Summary of the method: as §4

Stellaria media [36] = assay: as above; format: in vivo; conditions: application rate 1280 g/ha, rated visually after about 3 weeks, Table C7
Summary of the method: as §4

Matricaria inodora [37] = assay: as above; format: in vivo; conditions: application rate 1280 g/ha, rated visually after about 3 weeks, Table C6
Summary of the method: as §4

Amaranthus retroflexus [38] = assay: as above; format: in vivo; conditions: application rate 1280 g/ha, rated visually after about 3 weeks, Table C5
Summary of the method: as §4

Digitaria sanguinalis = assay: Post-emergence herbicidal action, greenhouse, 320 g/ha; format: in vivo; conditions: application rate 320 g/ha, rated visually after about 3 weeks vs untreated controls
Summary of the method: as §2

Alopecurus myosuroides [39] = assay: as above; format: in vivo; conditions: application rate 320 g/ha, rated visually after about 3 weeks vs untreated controls
Summary of the method: as §2

Structure (SMILES) | Polygonum convolvulus (efficacy in %) (Polygonum convolvulus [1]) | Veronica persica (efficacy in %) (Veronica persica [2]) | Hordeum murinum (efficacy in %) (Hordeum murinum [3]) | Abutilon theophrasti (efficacy in %) (Abutilon theophrasti [4]) | Pharbitis purpurea (efficacy in %) (Pharbitis purpurea [5]) | Viola tricolor (efficacy in %) (Viola tricolor [6]) | Setaria viridis (efficacy in %) (Setaria viridis [7]) | Echinochloa crus-galli (efficacy in %) (Echinochloa crus-galli [8]) | Alopecurus myosuroides (efficacy in %) (Alopecurus myosuroides [9]) | Stellaria media (efficacy in %) (Stellaria media [10]) | Matricaria inodora (efficacy in %) (Matricaria inodora [11]) | Avena fatua (efficacy in %) (Avena fatua) | Amaranthus retroflexus (efficacy in %) (Amaranthus retroflexus [12]) | Polygonum convolvulus (efficacy in %) (Polygonum convolvulus [13]) | Veronica persica (efficacy in %) (Veronica persica [14]) | Hordeum murinum (efficacy in %) (Hordeum murinum [16]) | Abutilon theophrasti (efficacy in %) (Abutilon theophrasti [17]) | Pharbitis purpurea (efficacy in %) (Pharbitis purpurea [18]) | Viola tricolor (efficacy in %) (Viola tricolor [19]) | Setaria viridis (efficacy in %) (Setaria viridis [20]) | other results
CCC(=O)OC1CCN(C)C(=O)N1c1cc(C(C)(C)C)on1 (centres unmarked) [I.3-162, 3-(5-tert-Butyl-1,2-oxazol-3-yl)-1-methyl-2-oxohexahydropyrimidin-4-yl Propionate] | 100% | 100% | 90% | 100% | 100% | 100% | 100% | 80% | 80% | 90% | 100% | 100% | 100% | 100% | 90% | 90% | 100% | 100% | 100% | 90% | inhibition at 100 µM (photosystem II (PS II)): 50 to 70%; Lolium rigidum (efficacy in %) (Lolium rigidum [15]): 80%; Stellaria media (efficacy in %) (Stellaria media [21]): 100%; Matricaria inodora (efficacy in %) (Matricaria inodora [22]): 100%; Amaranthus retroflexus (efficacy in %) (Amaranthus retroflexus [23]): 100%
CC(C)C(=O)OC1CCN(C)C(=O)N1c1cc(C(C)(C)C)on1 (centres unmarked) [I.5-162] | – | – | – | – | – | – | – | – | – | – | – | – | – | – | – | – | – | – | – | – | Lolium rigidum (Lolium rigidum [24]): 90%; Abutilon theophrasti (Abutilon theophrasti [25]): 100%; Setaria viridis (Setaria viridis [26]): 100%; Echinochloa crus-galli (Echinochloa crus-galli [27]): 100%; Poa Annua (Poa annua [28]): 100%; Stellaria media (Stellaria media [29]): 100%; Matricaria inodora (Matricaria inodora [30]): 100%; Amaranthus retroflexus (Amaranthus retroflexus [31]): 100%; Abutilon theophrasti (Abutilon theophrasti [32]): 100%; Setaria viridis (Setaria viridis [33]): 100%; Echinochloa crus-galli (Echinochloa crus-galli [34]): 100%; Poa Annua (Poa annua [35]): 100%; Stellaria media (Stellaria media [36]): 100%; Matricaria inodora (Matricaria inodora [37]): 100%; Amaranthus retroflexus (Amaranthus retroflexus [38]): 100%
CC(C)CC(=O)OC1CCN(C)C(=O)N1c1cc(C(C)(C)C)on1 (centres unmarked) [I.7-162, 3-(5-tert-Butyl-1,2-oxazol-3-yl)-1-methyl-2-oxohexahydropyrimidin-4-yl 3-methylbutanoate] | 90% | 80% | 90% | 100% | 100% | 100% | 100% | 80% | 90% | 100% | 100% | 100% | 100% | 90% | 90% | 80% | 100% | 100% | 100% | 100% | Digitaria sanguinalis (efficacy in %) (Digitaria sanguinalis): 80%; Alopecurus myosuroides (efficacy in %) (Alopecurus myosuroides [39]): 90%; Stellaria media (efficacy in %) (Stellaria media [21]): 100%; Matricaria inodora (efficacy in %) (Matricaria inodora [22]): 100%; Amaranthus retroflexus (efficacy in %) (Amaranthus retroflexus [23]): 100%
